Results as given in paper PMC10415461 (Molecular Diversity, 2022).
Converted amounts (≈) assume the structure as drawn. Where two headings read alike, the source gives them in different places.

Legend:
[1] = test system: P. aeruginosa (ATCC 10,145); experiment: Antibacterial MIC, standard agar cup diffusion method; format: cell-based; conditions: Pseudomonas aeruginosa, ATCC 10145, 37 °C, 24 h, read-out: MIC P. aeruginosa (Gram-negative)
Description: (§1) The antibacterial and antifungal activities of compounds, ketone 1, 2a-j, and 5a-i were evaluated in vitro against S. aureus (ATCC 6538), P. aeruginosa (ATCC 10,145), E. coli (ATCC 8739), and C. albicans (ATCC 10,231). […] Standard strains of Staphylococcus aureus (ATCC 6538), Pseudomonas aeruginosa (ATCC 10,145), and Escherichia coli (ATCC 8739) were obtained from microbiological resource center, Faculty of Agriculture, Ain Shams University, Cairo, Egypt. All isolates were maintained at -70 °C in Trypticase Soya Broth (TSB, Becton, and Dickinson) with 10% glycerol. Prior to inoculation, all isolates were subcultured at 37 °C for 24 h on Trypticase Soya Agar (TSA, Becton, and Dickinson) and TSB, respectively.
(§2) The plates were rotated slowly to ensure uniform distribution of the microorganisms and then allowed to solidify on a flat surface. After solidification, four equidistant and circular wells of 10 mm diameter were carefully punched using a sterile cork bore. Twofold serial dilutions of the tested compounds using DMSO were performed. An equal volume of 100µL of each dilution was applied separately to each well in three replicates using a micropipette. All plates were incubated at 37 °C for 24 h. The inhibition zones were measured, and their average was calculated.

E. coli (ATCC 8739) = experiment: as above; format: cell-based; conditions: Escherichia coli, ATCC8739, 37 °C, 24 h, read-out: MIC E. coli (Gram-negative)
Description: as §1, §2

[2] = test system: C. albicans (ATCC 10,231); experiment: Antifungal MIC, agar cup diffusion method; format: cell-based, Candida albicans; conditions: Sabouraud agar, 37 °C; for MIC: Candida albicans, ATCC 10,231, 24 h, read-out: MIC C. albicans (Fungi); for MIC C. albicans (Fungi): 24 h
Description: The antibacterial and antifungal activities of compounds, ketone 1, 2a-j, and 5a-i were evaluated in vitro against S. aureus (ATCC 6538), P. aeruginosa (ATCC 10,145), E. coli (ATCC 8739), and C. albicans (ATCC 10,231). […] The antifungal activity of compounds 1, 2a-j, and 5a-i and ketoconazole were determined according to the agar cup diffusion method at Deraya University, Faculty of Pharmacy, Department of Microbiology.
Fungal strains and culture conditions. […] Standard strain of Candida albicans (ATCC 10,231) was obtained from microbiological resource center, Faculty of Agriculture, Ain Shams University, Cairo, Egypt. The isolate was maintained at -70 °C in Trypticase Soya Broth (TSB, Becton, and Dickinson) with 10% glycerol. Prior to inoculation, the isolate was subcultured at 37 °C for 24 h on Trypticase Soya Agar (TSA, Becton, and Dickinson) and TSB, respectively.
as §2

S. aureus (ATCC 6538) = experiment: Antibacterial MIC, standard agar cup diffusion method; format: cell-based, Staphylococcus aureus; conditions: 24 h; for MIC: Staphylococcus aureus, ATCC6538, 37 °C, read-out: MIC S. aureus (Gram-positive)
Description: as §1, §2

[3] = Solubility determination in phosphate buffer; format: physicochemical; conditions: aqueous buffer, thermodynamic from solid
Description: A sample of drug was accurately weighed and dissolved in 100 ml of distilled water to prepare 100 mcg/ml stock solutions. Appropriate dilution of the stock solution with phosphate buffer pH 6.8 and 7.8 was then made to prepare a working solution of 40mcg/ml.
After determination of λ max of drug, a calibration curve was constructed by preparing solutions containing different concentrations of (1–5 mcg/ml) from stock solution after appropriate dilution with phosphate buffer pH 6.8. The UV absorbance of the prepared sample solutions were measured at the predetermined λ max using phosphate buffer pH 6.8 as a blank.
Aqueous solubility of the complexes was measured as a function of pH. An excess of each derivative was placed into suitable stoppered containers. […] The samples were immersed in a water bath thermostatized at 37 ± 1^◦C and 100 rpm and periodically shaken for 48 h. Once the equilibrium was reached, the pH of the supernatant was regarded.

physchem = conditions: pH 7.8
Description: The n-octanol/water apparent partition coefficient at the isoelectric point (or distribution constant) was measured by using the traditional shake-flask technique. The pH of the aqueous buffer was first adjusted to isoelectric point of the compound. The n-octanol and aqueous phases were then mutually saturated before the measurement. […] The samples were agitated for 5h at water bath shaker thermostatized at 25 ± 1^◦C and 100 rpm. The concentration of the solute was determined in the aqueous and organic phases at the isoelectric point by UV spectroscopy the log p value was calculated as follows: […].

S. aureus DNA gyrase = S. aureus DNA gyrase (Staphylococcus aureus, UniProt P0A0K8+P20831); experiment: Staphylococcus aureus DNA gyrase supercoiling assay; format: biochemical; conditions: supercoiling of relaxed pBR322, 37 °C, 30 min; read-out: S. aureus DNA gyrase IC50 ± SD
Description: As antibacterial agents, fluoroquinolones act by targeting and inhibiting DNA gyrase (topo II) which is an essential enzyme involved in the DNA replication process.
Staphylococcus aureus DNA gyrase was incubated at 37 °C for 30 min in a total reaction volume of 30 μl containing 40 mM HEPES. KOH (pH 7.6), 10 mM magnesium acetate, 10 mM DTT, 2 mM ATP, 500 mM potassium glutamate, 0.05 mg/ml albumin and Relaxed pBR322. DNA gyrase supercoiling reactions catalyzed by S. aureus gyrase, Stop reaction by adding 30 μL of STEB and 30 μL of chloroform/isoamyl alcohol (v:v, 24:1),and then Vortex briefly ~ 5 secs and centrifuge for 1 min. after which 20 µL of this was loaded on a 1% agarose gel that was then run at ~ 75 V for approximately 2 h. The gel was stained by (0.5 mg/L) ethidium bromide in water. Fluorescent images were taken at a wavelength of 300 nm on a UV transilluminator imaging system. The fluorescence intensity of the supercoiled plasmid reaction product was quantitated using ImagQuant software (Molecular Dynamics).

[4] = phosphate buffer pH 6.8, 37 °C, read-out: Solubility pH 6.8
[5] = phosphate buffer pH 7.8, 37 °C, read-out: Solubility pH 7.8

Row | MIC [2] [µg/mL] | MIC S. aureus (Gram-positive) (S. aureus (ATCC 6538); 37 °C) [µg/mL] | Lipophilicity (log p) (physchem) | Structure (SMILES) | MIC [1] [µg/mL] | MIC (E. coli (ATCC 8739)) [µg/mL] | MIC (S. aureus (ATCC 6538)) [µg/mL] | solubility at 48 h [3, 4] [µg/mL] | solubility at 48 h [3, 5] [µg/mL] | logD (physchem) | IC50 (S. aureus DNA gyrase) [µM] | MIC C. albicans (Fungi) [2] [µg/mL] | melting point [°C]
1 | > 100 | 0.70 (≈ 1.42 µM) | – | CC(=O)c1ccc(NC(=O)N2CCN(c3cc4c(cc3F)c(=O)c(C(=O)O)cn4C3CC3)CC2)cc1 [Compound 1] | 1.2 (≈ 2.44 µM) | 0.6 (≈ 1.22 µM) | 0.7 (≈ 1.42 µM) | – | – | – | – | – | –
2 | > 100 | – | – | O=C(/C=C/c1ccc(Br)cc1)c1ccc(NC(=O)N2CCN(c3cc4c(cc3F)c(=O)c(C(=O)O)cn4C3CC3)CC2)cc1 [Compound 2d] | 7.25 (≈ 11 µM) | 4.78 (≈ 7.25 µM) | 2.65 (≈ 4.02 µM) | 140 (≈ 212 µM) | 160 (≈ 243 µM) | 0.42 | – | – | –
3 | > 100 | – | – | COc1ccc(/C=C/C(=O)c2ccc(NC(=O)N3CCN(c4cc5c(cc4F)c(=O)c(C(=O)O)cn5C4CC4)CC3)cc2)cc1 [Compound 2g] | 6.25 (≈ 10.2 µM) | 17 (≈ 27.8 µM) | 8 (≈ 13.1 µM) | – | – | – | – | – | –
4 | 84.2 (≈ 135 µM) | – | − 0.21 | CN(C)c1ccc(/C=C/C(=O)c2ccc(NC(=O)N3CCN(c4cc5c(cc4F)c(=O)c(C(=O)O)cn5C4CC4)CC3)cc2)cc1 [Compound 2h] | 3.12 (≈ 5.01 µM) | 5.25 (≈ 8.42 µM) | 1.2 (≈ 1.92 µM) | 680 (≈ 1090 µM) | 780 (≈ 1250 µM) | – | – | – | –
5 | > 100 | – | − 0.06 | COc1ccc(/C=C/C(=O)c2ccc(NC(=O)N3CCN(c4cc5c(cc4F)c(=O)c(C(=O)O)cn5C4CC4)CC3)cc2)cc1OC [Compound 2i] | 17 (≈ 26.5 µM) | 4.13 (≈ 6.45 µM) | 6.3 (≈ 9.83 µM) | 150 (≈ 234 µM) | 190 (≈ 297 µM) | – | – | – | –
6 | > 100 | – | – | COc1cc(/C=C/C(=O)c2ccc(NC(=O)N3CCN(c4cc5c(cc4F)c(=O)c(C(=O)O)cn5C4CC4)CC3)cc2)cc(OC)c1OC [Compound 2j] | 4.2 (≈ 6.26 µM) | 5.13 (≈ 7.65 µM) | 1.48 (≈ 2.21 µM) | 180 (≈ 268 µM) | 150 (≈ 224 µM) | 0.34 | – | – | –
7 | 36.1 (≈ 53.2 µM) | – | – | N#Cc1c(-c2ccc(Br)cc2)nc(SCC(=O)N2CCN(c3cc4c(cc3F)c(=O)c(C(=O)O)cn4C3CC3)CC2)[nH]c1=O [Compound 5d, 7-(4-(2-((4-(4-Bromophenyl)-5-cyano-6-oxo-1,6-dihydropyrimidin-2-yl)thio)acetyl)piperazin-1-yl)-1-cyclopropyl-6-fluoro-4-oxo-1,4-dihydroquinoline-3-carboxylic acid] | 12.3 (≈ 18.1 µM) | 42.2 (≈ 62.1 µM) | 8.14 (≈ 12 µM) | – | – | – | – | – | 284 to 285
8 | 2.6 (≈ 4.89 µM) | – | – | CC(=O)N1CCN(c2ccc(OCC3COC(Cn4ccnc4)(c4ccc(Cl)cc4Cl)O3)cc2)CC1 (stereo not shown) [Ketoconazole, reference compound] | – | – | – | – | – | – | – | – | –

Row | Structure (SMILES) | MIC [2] [µg/mL] | MIC S. aureus (Gram-positive) (S. aureus (ATCC 6538); 37 °C) [µg/mL] | Lipophilicity (log p) (physchem) | MIC [1] [µg/mL] | MIC (E. coli (ATCC 8739)) [µg/mL] | MIC (S. aureus (ATCC 6538)) [µg/mL] | solubility at 48 h [3, 4] [µg/mL] | solubility at 48 h [3, 5] [µg/mL] | logD (physchem) | IC50 (S. aureus DNA gyrase) [µM] | MIC C. albicans (Fungi) [2] [µg/mL] | melting point [°C]
9 | O=C(/C=C/c1ccccc1)c1ccc(NC(=O)N2CCN(c3cc4c(cc3F)c(=O)c(C(=O)O)cn4C3CC3)CC2)cc1 [Compound 2a] | > 100 | – | – | 1.12 (≈ 1.93 µM) | 0.64 (≈ 1.1 µM) | 0.74 (≈ 1.27 µM) | 210 (≈ 362 µM) | 150 (≈ 258 µM) | 0.24 | 3.47 ± 0.18 | – | –
10 | O=C(/C=C/c1ccc(F)cc1)c1ccc(NC(=O)N2CCN(c3cc4c(cc3F)c(=O)c(C(=O)O)cn4C3CC3)CC2)cc1 [Compound 2e] | 2.03 to 3.89 (≈ 3.39 to 6.5 µM) | – | – | 0.96 (≈ 1.6 µM) | 0.53 (≈ 0.885 µM) | 0.89 (≈ 1.49 µM) | 160 (≈ 267 µM) | 180 (≈ 301 µM) | 0.07 | 3.81 ± 0.2 | 2.03 (≈ 3.39 µM) | –
11 | Cc1ccc(/C=C/C(=O)c2ccc(NC(=O)N3CCN(c4cc5c(cc4F)c(=O)c(C(=O)O)cn5C4CC4)CC3)cc2)cc1 [Compound 2f] | > 100 | – | – | 3.7 (≈ 6.22 µM) | 9.33 (≈ 15.7 µM) | 0.94 (≈ 1.58 µM) | 160 (≈ 269 µM) | 170 (≈ 286 µM) | 0.4 | 1.77 ± 0.09 | – | –
12 | N#Cc1c(-c2ccc(Cl)cc2)nc(SCC(=O)N2CCN(c3cc4c(cc3F)c(=O)c(C(=O)O)cn4C3CC3)CC2)[nH]c1=O [Compound 5c, 7-(4-(2-((4-(4-Chlorophenyl)-5-cyano-6-oxo-1,6-dihydropyrimidin-2-yl)thio)acetyl)piperazin-1-yl)-1-cyclopropyl-6-fluoro-4-oxo-1,4-dihydroquinoline-3-carboxylic acid] | 2.03 to 3.89 (≈ 3.2 to 6.13 µM) | – | – | 2.04 (≈ 3.21 µM) | 1.03 (≈ 1.62 µM) | 0.58 (≈ 0.913 µM) | – | – | – | 1.57 ± 0.08 | 2.87 (≈ 4.52 µM) | 253 to 256
13 | N#Cc1c(-c2ccc(F)cc2)nc(SCC(=O)N2CCN(c3cc4c(cc3F)c(=O)c(C(=O)O)cn4C3CC3)CC2)[nH]c1=O [Compound 5e, 7-(4-(2-((4-(4-Fluorophenyl)-5-cyano-6-oxo-1,6-dihydropyrimidin-2-yl)thio)acetyl)piperazin-1-yl)-1-cyclopropyl-6-fluoro-4-oxo-1,4-dihydroquinoline-3-carboxylic acid] | 2.03 to 3.89 (≈ 3.28 to 6.29 µM) | – | – | 3.25 (≈ 5.25 µM) | 0.52 (≈ 0.841 µM) | 0.78 (≈ 1.26 µM) | – | – | – | 1.01 ± 0.05 | 2.51 (≈ 4.06 µM) | 242 to 245
14 | Cc1ccc(-c2nc(SCC(=O)N3CCN(c4cc5c(cc4F)c(=O)c(C(=O)O)cn5C4CC4)CC3)[nH]c(=O)c2C#N)cc1 [Compound 5f] | > 100 | – | – | 2.95 (≈ 4.8 µM) | 3.89 (≈ 6.33 µM) | 4.79 (≈ 7.79 µM) | – | – | – | 3.5 ± 0.19 | – | 264 to 267
15 | COc1ccc(-c2nc(SCC(=O)N3CCN(c4cc5c(cc4F)c(=O)c(C(=O)O)cn5C4CC4)CC3)[nH]c(=O)c2C#N)cc1 [Compound 5g, 7-(4-(2-((5-Cyano-4-(4-methoxyphenyl)-6-oxo-1,6-dihydropyrimidin-2-yl)thio)acetyl)piperazin-1-yl)-1-cyclopropyl-6-fluoro-4-oxo-1,4-dihydroquinoline-3-carboxylic acid] | > 100 | – | − 0.09 | 23.1 (≈ 36.7 µM) | 14.2 (≈ 22.6 µM) | 0.28 (≈ 0.444 µM) | 740 (≈ 1170 µM) | 900 (≈ 1430 µM) | – | 7.59 ± 0.4 | – | 239 to 242
